# Measured values published in US20090221567A1, “MUSCARINIC RECEPTOR AGONISTS, COMPOSITIONS, METHODS OF TREATMENT THEREOF, AND PROCESSES FOR PREPARATION THEREOF 177” (ASTRAZENECA AB, priority 2008, published 2009).
# Biological target: T1, human M4 receptor (human Muscarinic receptor subtype 4) (Homo sapiens, UniProt P08173)
# T1 construct: purchased Perkin-Elmer RBHM4M; host or cells: membranes from CHO cells expressing the cloned receptor
# T1 sequence (P08173 1-479): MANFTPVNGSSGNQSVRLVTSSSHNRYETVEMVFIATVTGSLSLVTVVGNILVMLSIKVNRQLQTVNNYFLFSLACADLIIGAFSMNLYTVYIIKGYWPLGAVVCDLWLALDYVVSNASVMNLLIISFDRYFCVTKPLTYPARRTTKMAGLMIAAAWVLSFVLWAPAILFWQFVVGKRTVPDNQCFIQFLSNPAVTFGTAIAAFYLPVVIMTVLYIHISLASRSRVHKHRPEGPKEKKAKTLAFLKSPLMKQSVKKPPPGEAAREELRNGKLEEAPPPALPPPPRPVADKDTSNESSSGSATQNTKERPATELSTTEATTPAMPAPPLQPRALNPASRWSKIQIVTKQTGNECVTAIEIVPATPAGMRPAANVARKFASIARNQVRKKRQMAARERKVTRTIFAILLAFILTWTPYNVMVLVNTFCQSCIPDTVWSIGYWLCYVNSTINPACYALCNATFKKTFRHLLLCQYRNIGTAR
# Experiment: hM4 receptor GTPγS binding
# Type: biochemical
# Settings: CHO membranes, [35S]GTPγS binding
# Description: Membranes produced from Chinese hamster ovary cells (CHO) expressing the cloned human M4 receptor (human Muscarinic receptor subtype 4, gene bank access NM_000741), are obtained from Perkin-Elmer (RBHM4M). The membranes are thawed at 37° C., passed 3 times through a 23-gauge blunt-end needle, diluted in the GTPγS binding buffer (50 mM Hepes, 20 mM NaOH, 100 mM NaCl, 1 mM EDTA, 5 mM MgCl2, pH 7.4, 100 μM DTT). The EC50, IC50 and Emax of the compounds of the invention are evaluated from 10-point dose-response curves (three fold concentration range) done in 60 μl in 384-well non-specific binding surface plate (Corning). Ten microliters from the dose-response curves plate (5× concentration) are transferred to another 384 well plate containing 25 μl of the following: 10 μg of hM4 membranes, 500 μg of Flashblue beads (Perkin-Elmer) and GDP 40 μM. An additional 15 μl containing 3.3× (60,000 dpm) of GTPγS (0.4 nM final) are added to the wells resulting in a total well volume of 50 μl. Basal and maximal stimulated [^35S]GTPγS binding are determined in absence and presence of 30 μM final of acetylcholine agonist. The membranes/beads mix are pre-incubated for 15 minutes at room temperature with 40 μM GDP prior to distribution in plates (20 μM final). The reversal of acetylcholine-induced stimulation (10 μM final) of [^35S]GTPγS binding is used to assay the antagonist properties (IC50) of the compounds. The plates are incubated for 60 minutes at room temperature then centrifuged at 400 rpm for 5 minutes. The radioactivity (cpm) is counted in a Trilux (Perkin-Elmer).
# Values of EC50, IC50 and Emax are obtained using sigmoidal fits of a non-linear curve-fitting program (XLfit version 4.2.2 Excel add-in version 4.2.2 build 18 math 1Q version 2.1.2 build 18) of percent stimulated [^35S]GTPγS binding vs. log(molar ligand). All pEC50 and pIC50 values are reported as arithmetic means±standard error of mean of ‘n’ independent experiments.
row,Structure (SMILES),EC50 [µM]
1,"CCOC(=O)N1CCC(N2CCC(N3C(=O)NC[C@H]4CCCC[C@@H]43)CC2)CC1 [Example 1, Ethyl 4-[4-[(4aR,8aS)-2-oxo-3,4,4a,5,6,7,8,8a-octahydroquinazolin-1-y]-1-piperidyl]piperidine-1-carboxylate]",1.7
2,"O=C(C1CC1)N1CCC(N2CCC(N3C(=O)NC[C@H]4CCCC[C@@H]43)CC2)CC1 [Example 3, (4aR,8aS)-1-[1-[1-(cyclopropanecarbonyl)-4-piperidyl]-4-piperidyl]-3,4,4a,5,6,7,8,8a-octahydroquinazolin-2-one]",> 30
3,"CCOC(=O)N1CCC(C)(N2CCC(N3C(=O)NC[C@H]4CCCC[C@@H]43)CC2)CC1 [Example 7, Ethyl 4-[4-[(4aR,8aS)-2-oxo-3,4,4a,5,6,7,8,8a-octahydroquinazolin-1-yl]-1-piperidyl]-4-methyl-piperidine-1-carboxylate]",> 1.6
4,"CC(C)OC(=O)N1CCC(C)(N2CCC(N3C(=O)NC[C@H]4CCCC[C@@H]43)CC2)CC1 [Example 8, Propan-2-yl 4-[4-[(4aR,8aS)-2-oxo-3,4,4a,5,6,7,8,8a-octahydroquinazolin-1-yl]-1-piperidyl]-4-methyl-piperidine-1-carboxylate]",> 30
5,"Cc1ccccc1C(=O)N1CCC(N2CCC(N3C(=O)NC[C@H]4CCCC[C@@H]43)CC2)CC1 [Example 4, (4aR,8aS)-1-[1-[1-(2-methylbenzoyl)-4-piperidyl]-4-piperidyl]-3,4,4a,5,6,7,8,8a-octahydroquinazolin-2-one]",> 30
6,"CC(C)OC(=O)N1CCC(N2CCC(N3C(=O)N(C)C[C@H]4CCCC[C@@H]43)CC2)CC1 [Example 6, Propan-2-yl 4-[4-[(4aR,8aS)-3-methyl-2-oxo-4a,5,6,7,8,8a-hexahydro-4H-quinazolin-1-yl]-1-piperidyl]piperidine-1-carboxylate]",> 30
7,"CC(C)OC(=O)N1CCC(N2CCC(N3C(=O)NC[C@H]4CCCC[C@@H]43)CC2)CC1 [Example 2, Propan-2-yl 4-[4-[(4aR,8aS)-2-oxo-3,4,4a,5,6,7,8,8a-octahydroquinazolin-1-yl]-1-piperidyl]piperidine-1-carboxylate]",> 20

# Other lines, results leading:
row,EC50 [µM],Structure (SMILES)
1,> 30,"CCOC(=O)N1CCC(N2CCC(N3C(=O)OC[C@H]4CCCC[C@@H]43)CC2)CC1 [Example 15, Ethyl 4-[4-[(1S,6S)-9-oxo-8-oxa-10-azabicyclo[4.4.0]dec-10-yl]-1-piperidyl]piperidine-1-carboxylate]"
2,> 30,"CCOC(=O)N1CCC(C)(N2CCC(N3C(=O)CO[C@H]4CCCC[C@@H]43)CC2)C1 (single isomer, unassigned) [Example 19]"
3,> 30,"Cc1ccccc1C(=O)N1CCC(N2CCC(N3C(=O)CO[C@H]4CCCC[C@@H]43)CC2)CC1 [Example 11, (1S,6S)-10-[1-[1-(2-methylbenzoyl)-4-piperidyl]-4-piperidyl]-7-oxa-10-azabicyclo[4.4.0]decan-9-one]"
4,> 30,"Cn1cccc1C(=O)N1CCC(N2CCC(N3C(=O)CO[C@H]4CCCC[C@@H]43)CC2)CC1 [Example 12, (1S,6S)-10-[1-[1-(1-methylpyrrole-2-carbonyl)-4-piperidyl]-4-piperidyl]-7-oxa-10-azabicyclo[4.4.0]decan-9-one]"
5,> 30,"CC(C)OC(=O)N1CCC(N2CCC(N3C(=O)CO[C@@H]4CCCC[C@H]43)CC2)CC1 [Example 14, Propan-2-yl 4-[4-[(1R,6R)-9-oxo-7-oxa-10-azabicyclo[4.4.0]dec-10yl]-1-piperidyl]piperidine-1-carboxylate]"
6,> 30,"CCOC(=O)N1CC[C@H](N2CCC(N3C(=O)CO[C@H]4CCCC[C@@H]43)CC2)C1 [Example 13, Ethyl (3S)-3-[4-[(1S,6S)-9-oxo-7-oxa-10-azabicyclo[4.4.0]dec-10-yl]-1-piperidyl]pyrrolidine-1-carboxylate]"
7,8.97,"CCOC(=O)N1CCC(C)(N2CCC(N3C(=O)CO[C@H]4CCCC[C@@H]43)CC2)C1 (single isomer, unassigned) [Example 18]"
8,> 30,"CC(C)OC(=O)N1CCC(N2CCC(N3C(=O)CO[C@H]4CCCC[C@@H]43)CC2)CC1 [Example 10, Propan-2-yl 4-[4-[(1S,6S)-9-oxo-7-oxa-10-azabicyclo[4.4.0]dec-10-yl]-1-piperidyl]piperidine-1-carboxylate]"
9,4.3,"CCOC(=O)N1CCC(N2CCC(N3C(=O)CO[C@H]4CCCC[C@@H]43)CC2)CC1 [Example 9, Ethyl 4-[4-[(1S,6S)-9-oxo-7-oxa-10-azabicyclo[4.4.0]dec-10-yl]-1-piperidyl]piperidine-1-carboxylate]"
